{
  "source": "ChEMBL document CHEMBL5370633",
  "about": "“Anti-cancer Effect of a Planar Catechin Analog through the Decrease in Mitochondrial Membrane Potential” (ACS Med Chem Lett, 2023)",
  "key": {"RGK1 [1]": {"test_system": "RGK1", "assay": "Antiproliferative activity against rat RGK1 cells assessed as reduction in viability at 100 to 100 uM after 24 hrs by CCK-8 assay", "type": "functional, cell-based", "settings": "dose 100-100 µM"}, "RGK1 [2]": {"test_system": "RGK1", "assay": "Induction of mitochondrial membrane potential loss in rat RGK1 cells at 200 uM after 24 hrs by MitoTracker Red CMXRos fluorescence microscopic analysis", "type": "functional, cell-based"}, "[3]": {"assay": "Cytotoxicity against rat RGM1 cells assessed as reduction in viability at 100 to 100 uM after 24 hrs by CCK-8 assay", "type": "toxicity, cell-based", "settings": "rgm1, 24 h, dose 100-100 µM"}},
  "note": "Calls of active or inactive are those of the source. No cut-off for these calls is given here.",
  "data": [
    {"molecule": "CC1(C)O[C@H]2Cc3c(O)cc(O)cc3O[C@@H]2c2cc(O)c(O)cc21", "values": [
      {"measurement": "Activity", "setting": "RGK1 [1]", "result": "Active"},
      {"measurement": "Activity", "setting": "RGK1 [2]", "result": "Active"},
      {"measurement": "Activity", "setting": "[3]", "result": "Toxic"}
    ]}
  ]
}
